Consider 14 compounds from patent publication US9682974B2, “Heteroaryl substituted pyrazoles” (BAYER PHARMA AKTIENGESELLSCHAFT, priority 2013, dated 2017).

The target in test [1] is T1, catalytic domain of human Bub1 (amino acids 704-1085) (Homo sapiens, UniProt O43683).
T1 construct: catalytic domain of human Bub1 (amino acids 704-1085); His6 (N); made in house; host or cells: Hi5 insect cells
As to the kind of experiment: Bub1 kinase assay (TR-FRET). The settings on record: 10 μM ATP, 1 μM peptide substrate, read-out: Biological Assay 1: Bub1 kinase assay median IC50. In kind it is biochemical. The text has this:
Bub1-inhibitory activities of compounds described in the present invention were quantified using a time-resolved fluorescence energy transfer (TR-FRET) kinase assay which measures phosphorylation of the synthetic peptide Biotin-Ahx-VLLPKKSFAEPG (SEQ ID No. 1) (C-terminus in amide form), purchased from e.g. Biosyntan (Berlin, Germany) by the (recombinant) catalytic domain of human Bub1 (amino acids 704-1085), expressed in Hi5 insect cells with an N-terminal His6-tag and purified by affinity- (Ni-NTA) and size exclusion chromatography.
In a typical assay 11 different concentrations of each compound (0.1 nM, 0.33 nM, 1.1 nM, 3.8 nM, 13 nM, 44 nM, 0.15 μM, 0.51 μM, 1.7 μM, 5.9 μM and 20 μM) were tested in duplicate within the same microtiter plate. To this end, 100-fold concentrated compound solutions (in DMSO) were previously prepared by serial dilution (1:3.4) of 2 mM stocks in a clear low volume 384-well source microtiter plate (Greiner Bio-One, Frickenhausen, Germany), from which 50 nL of compounds were transferred into a black low volume test microtiter plate from the same supplier. Subsequently, 2 μL of Bub1 (the final concentration of Bub1 was adjusted depending on the activity of the enzyme lot in order to be within the linear dynamic range of the assay: typically ˜200 ng/mL were used) in aqueous assay buffer [50 mM Tris/HCl pH 7.5, 10 mM magnesium chloride (MgCl2), 200 mM potassium chloride (KCl), 1.0 mM dithiothreitol (DTT), 0.1 mM sodium ortho-vanadate, 1% (v/v) glycerol, 0.01% (w/v) bovine serum albumine (BSA), 0.005% (v/v) Trition X-100 (Sigma), 1× Complete EDTA-free protease inhibitor mixture (Roche)] were added to the compounds in the test plate and the mixture was incubated for 15 min at 22° C. to allow pre-equilibration of the putative enzyme-inhibitor complexes before the start of the kinase reaction, which was initiated by the addition of 3 μL 1.67-fold concentrated solution (in assay buffer) of adenosine-tri-phosphate (ATP, 10 μM final concentration) and peptide substrate (1 μM final concentration). The resulting mixture (5 μL final volume) was incubated at 22° C. during 60 min., and the reaction was stopped by the addition of 5 μL of an aqueous EDTA-solution (50 mM EDTA, in 100 mM HEPES pH 7.5 and 0.2% (w/v) bovine serum albumin) which also contained the TR-FRET detection reagents (0.2 μM streptavidin-XL665 [Cisbio Bioassays, Codolet, France] and 1 nM anti-phosho-Serine antibody [Merck Millipore, cat. #35-001] and 0.4 nM LANCE EU-W1024 labeled anti-mouse IgG antibody [Perkin-Elmer, product no. AD0077, alternatively a Terbium-cryptate-labeled anti-mouse IgG antibody from Cisbio Bioassays can be used]). The stopped reaction mixture was further incubated 1 h at 22° C. in order to allow the formation of complexes between peptides and detection reagents. Subsequently, the amount of product was evaluated by measurement of the resonance energy transfer from the Eu-chelate-antibody complex recognizing the Phosphoserine residue to the streptavidin-XL665 bound to the biotin moiety of the peptide. To this end, the fluorescence emissions at 620 nm and 665 nm after excitation at 330-350 nm were measured in a TR-FRET plate reader, e.g. a Rubystar or Pherastar (both from BMG Labtechnologies, Offenburg, Germany) or a Viewlux (Perkin-Elmer) and the ratio of the emissions (665 nm/622 nm) was taken as indicator for the amount of phosphorylated substrate. The data were normalised using two sets of (typically 32-) control wells for high- (=enzyme reaction without inhibitor=0%=Minimum inhibition) and low- (=all assay components without enzyme=100%=Maximum inhibition) Bub1 activity. […] values were calculated by fitting the normalized inhibition data to a 4-parameter logistic equation (Minimum, Maximum, IC50, Hill; Y=Max+(Min−Max)/(1+(X/IC50)Hill)).
(In general: Time-resolved FRET reads energy transfer from a long-lived donor to a nearby acceptor.)

The subject of test [2] is HeLa human cervical cancer cell line. As to the kind of experiment: Proliferation assay (HeLa cell line), crystal violet staining. In kind it is cell-based. The settings on record: 96 h, HeLa cells, 4 days incubation, read-out: Biological Assay 2: Proliferation assay (HeLa cell line) median IC50. Here is the method: Cultivated tumor cells (cells were ordered from ATCC) were plated at a density of 3000 cells/well in a 96-well multititer plate in 200 μL of growth medium supplemented 10% fetal calf serum. After 24 hours, the cells of one plate (zero-point plate) were stained with crystal violet (see below), while the medium of the other plates was replaced by fresh culture medium (200 μL), to which the test substances were added in various concentrations (0 μM, as well as in the range of 0.001-10 μM; the final concentration of the solvent dimethyl sulfoxide was 0.5%). The cells were incubated for 4 days in the presence of test substances. Cell proliferation was determined by staining the cells with crystal violet: the cells were fixed by adding 20 μL/measuring point of an 11% glutaric aldehyde solution for 15 minutes at room temperature. After three washing cycles of the fixed cells with water, the plates were dried at room temperature. The cells were stained by adding 100 μL/measuring point of a 0.1% crystal violet solution (pH 3.0). After three washing cycles of the stained cells with water, the plates were dried at room temperature. The dye was dissolved by adding 100 μL/measuring point of a 10% acetic acid solution. Absorbtion was determined by photometry at a wavelength of 595 nm. The change of cell number, in percent, was calculated by normalization of the measured values to the absorbtion values of the zero-point plate (=0%) and the absorbtion of the untreated (0 μm) cells (=100%). The IC50 values were determined by means of a 4 parameter fit.

The structures appear in SMILES notation. A value given as a limit tells only on which side of the number the result lay.

T1 sequence (O43683 704-1085): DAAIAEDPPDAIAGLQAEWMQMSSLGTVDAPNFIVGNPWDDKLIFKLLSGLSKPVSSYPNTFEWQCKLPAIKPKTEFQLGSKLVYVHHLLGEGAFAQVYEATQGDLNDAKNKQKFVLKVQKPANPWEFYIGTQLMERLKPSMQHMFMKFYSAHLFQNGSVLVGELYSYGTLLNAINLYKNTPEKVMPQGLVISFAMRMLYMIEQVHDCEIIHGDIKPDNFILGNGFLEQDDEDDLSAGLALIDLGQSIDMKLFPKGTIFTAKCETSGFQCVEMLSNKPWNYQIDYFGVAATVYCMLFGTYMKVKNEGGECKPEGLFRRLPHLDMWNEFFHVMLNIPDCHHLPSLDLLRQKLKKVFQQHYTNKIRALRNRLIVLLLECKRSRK

As to `CCOc1cc(F)c(Cn2nc(-c3nc(Nc4ccncc4)n(CCOC)n3)c3ccccc32)c(F)c1` [Example 2-5-1, N-{3-[1-(4-ethoxy-2,6-difluorobenzyl)-1H-indazol-3-yl]-1-(2-methoxyethyl)-1H-1,2,4-triazol-5-yl}pyridin-4-amine], the IC50 in test [1] was determined as 0.013 µM. Consider `CCOC(=O)c1cnccc1Nc1nc(-c2nn(Cc3c(F)cc(OCC)cc3F)c(C3CC3)c2C)nn1CCOC` [Example 2-4-1, ethyl 4-({3-[5-cyclopropyl-1-(4-ethoxy-2,6-difluorobenzyl)-4-methyl-1H-pyrazol-3-yl]-1-(2-methoxyethyl)-1H-1,2,4-triazol-5-yl}amino)nicotinate], for which, in test [1], the IC50 amounted to 0.091 µM. As for `CCOc1cc(F)c(Cn2nc(-c3nc(Nc4ccncc4)n(CCOC)n3)c(C)c2C2CC2)c(F)c1` [Example 2-3-2, N-{3-[5-cyclopropyl-1-(4-ethoxy-2,6-difluorobenzyl)-4-methyl-1H-pyrazol-3-yl]-1-(2-methoxyethyl)-1H-1,2,4-triazol-5-yl}pyridin-4-amine], the figures for the IC50 in test [2] and in test [1] were above 10 µM and 0.012 µM, respectively. With `CCOc1cc(F)c(Cn2nc(-c3nc(Nc4ccncc4)n(CCO)n3)c(C)c2C2CC2)c(F)c1` [Example 2-3-3, 2-{3-[5-cyclopropyl-1-(4-ethoxy-2,6-difluorobenzyl)-4-methyl-1H-pyrazol-3-yl]-5-(pyridin-4-ylamino)-1H-1,2,4-triazol-1-yl}ethanol], the IC50 was above 10 µM in test [2] and 0.022 µM in test [1]. As for `CCOc1cc(F)c(Cn2nc(-c3cc(Nc4ccncn4)n(CCS(C)(=O)=O)n3)c(C)c2C2CC2)c(F)c1` [Example 2-2-1, 5′-cyclopropyl-1′-(4-ethoxy-2,6-difluorobenzyl)-4′-methyl-1-[2-(methylsulfonyl)ethyl]-N-(pyrimidin-4-yl)-1H,1′H-3,3′-bipyrazol-5-amine], in test [1], the IC50 is at least 20 µM. Same read-out and setting: to `CCOc1cc(F)c(Cn2nc(-c3n[nH]c(Nc4ccncc4)n3)c(C)c2C2CC2)c(F)c1` [Example 2-3-4, N-{3-[5-cyclopropyl-1-(4-ethoxy-2,6-difluorobenzyl)-4-methyl-1H-pyrazol-3-yl]-1H-1,2,4-triazol-5-yl}pyridin-4-amine] belongs 0.082 µM. Take `CCOc1cc(F)c(Cn2nc(-c3cc(Nc4ccncn4)n(CC(=O)O)n3)c(C)c2C2CC2)c(F)c1` [Example 2-1-3, [5′-cyclopropyl-1′-(4-ethoxy-2,6-difluorobenzyl)-4′-methyl-5-(pyrimidin-4-ylamino)-1H,1′H-3,3′-bipyrazol-1-yl]acetic acid]: the results for the IC50 in test [2] and in test [1] were above 10 µM and 1.1 µM, respectively. For `CCOc1cc(F)c(Cn2nc(-n3cc(Nc4ccncn4)cn3)c3ccccc32)c(F)c1` [Example 2-6-1, N-{1-[1-(4-ethoxy-2,6-difluorobenzyl)-1H-indazol-3-yl]-1H-pyrazol-4-yl}pyrimidin-4-amine], the IC50 in test [2] is above 10 µM; in test [1] it was 0.026 µM. In the case of `CCOc1cc(F)c(Cn2nc(-c3cc(Nc4ccncn4)n(C)n3)c(C)c2C2CC2)c(F)c1` [Example 2-1-4, 5′-cyclopropyl-1′-(4-ethoxy-2,6-difluorobenzyl)-1,4′-dimethyl-N-(pyrimidin-4-yl)-1H,1′H-3,3′-bipyrazol-5-amine], in test [1], the IC50 was determined as 0.034 µM.

As for `CCOc1cc(F)c(Cn2nc(-c3cc(Nc4ccncn4)n(CCN4CCOCC4)n3)c(C)c2C2CC2)c(F)c1` [Example 2-1-1, 5′-cyclopropyl-1′-(4-ethoxy-2,6-difluorobenzyl)-4′-methyl-1-[2-(morpholin-4-yl)ethyl]-N-(pyrimidin-4-yl)-1H,1′H-3,3′-bipyrazol-5-amine], the IC50 in test [1] was determined as 0.68 µM. Take `Fc1ccccc1Cn1nc(-c2nsc(Nc3ccncc3)n2)c2ccccc21` [Example 2-7-1, N-{3-[1-(2-fluorobenzyl)-1H-indazol-3-yl]-1,2,4-thiadiazol-5-yl}-pyridin-4-amine]: the IC50 in test [2] was 9.1 µM; in test [1], 2.2 µM.

For the compound `CCOc1cc(F)c(Cn2nc(-c3nc(Nc4ccncc4)nn3CCOC)c3ccccc32)c(F)c1` [Example 2-5-2, N-{5-[1-(4-ethoxy-2,6-difluorobenzyl)-1H-indazol-3-yl]-1-(2-methoxyethyl)-1H-1,2,4-triazol-3-yl}pyridin-4-amine], the IC50 in test [1] came out at 0.6 µM.

`CCOc1cc(F)c(Cn2nc(-c3cc(Nc4ccncc4)n(C)n3)c(C)c2C2CC2)c(F)c1` [Example 2-3-1, 5′-cyclopropyl-1′-(4-ethoxy-2,6-difluorobenzyl)-1,4′-dimethyl-N-(pyridin-4-yl)-1H,1′H-3,3′-bipyrazol-5-amine]: the IC50 in test [2] is 3.5 µM; in test [1], 0.39 µM. As for `CCOc1cc(F)c(Cn2nc(-c3cc(Nc4ccncn4)n(C(C)=O)n3)c(C)c2C2CC2)c(F)c1` [Example 2-1-2, 1-[5′-cyclopropyl-1′-(4-ethoxy-2,6-difluorobenzyl)-4′-methyl-5-(pyrimidin-4-ylamino)-1H,1′H-3,3′-bipyrazol-1-yl]ethanone], the IC50 in test [2] was above 10 µM; in test [1], at least 20 µM.
